Reference: US20060189608A1, “Methods for treating ocular angiogenesis, retinal edema, retinal ischemia, and diabetic retinopathy using selective RTK inhibitors” (Alcon, Inc., priority 2005, published 2006)

System: rat model of oxygen-induced retinopathy
Test: Preretinal neovascularization, rat OIR model, intravitreal injection
Format: in vivo, Sprague-Dawley rats
Settings: for % Inhibition (vs. vehicle-injected eye) / Median NV / NV Range: 5 μl intravitreal; for % Inhibition (vs. vehicle-injected eye): preretinal NV; for Median NV / NV Range: NV clockhour score
Source text: METHODS: Pregnant Sprague-Dawley rats were received at 14 days gestation and subsequently gave birth on Day 22±1 of gestation. Immediately following parturition, pups were pooled and randomized into separate litters (n=17 pups/litter), placed into separate shoebox cages inside oxygen delivery chamber, and subjected to an oxygen-exposure profile from Day 0-14 postpartum. Litters were then placed into room air from Day 14/0 through Day 14/6 (days 14-20 postpartum). Additionally on Day 14/0, each pup was randomly assigned as an oxygen-exposed control or into various treatment groups. […] At Day 14/6 (20 days postpartum), all animals in both studies were euthanized.
Immediately following euthanasia, retinas from all rat pups were harvested, fixed in 10% neutral buffered formalin for 24 hours, subjected to ADPase staining, and fixed onto slides as whole mounts. Digital images were acquired from each retinal flat mount that was adequately prepared. Computerized image analysis was used to obtain a NV clockhour score from each readable sample. Each clockhour out of 12 total per retina was assessed for the presence or absence of preretinal NV. Statistical comparisons using median scores for NV clockhours from each treatment group were utilized in nonparametric analyses. Each noninjected pup represented one NV score by taking the average value of both eyes and was used in comparisons against each dosage group. Because the pups were randomly assigned and no difference was observed between oxygen-exposed control pups from all litters, the NV scores were combined for all treatment groups. P≦0.05 was considered statistically significant.

In the case of `Cc1ccc(F)c(NC(=O)Nc2ccc(-c3cccc4[nH]nc(N)c34)cc2)c1` [AL-39324, N-[4-[3-amino-1H-indazol-4-yl)phenyl]-N′-(2-fluoro-5-methylphenyl)urea], the “efficacy against preretinal NV” value (0.1% treated eyes) was “Efficacy was not observed”, the “% Inhibition (vs. vehicle-injected eye)” value (0.1%) was 37% and the “Median NV” value (0.1%) was 2.835. The “NV Range” value (0.1%) was 1.1-5.3, the “% Inhibition (vs. vehicle-injected eye)” value (0.3%) was 100% and the “Median NV” value (0.3%) was 0. For the same compound, the “NV Range” value (0.3%) was 0-5, the “% Inhibition (vs. vehicle-injected eye)” value (0.6%) was 100% and the “Median NV” value (0.6%) was 0. The “NV Range” value (0.6%) was 0-1.1, the “% Inhibition (vs. vehicle-injected eye)” value (1%) was 100% and the “Median NV” value (1%) was 0. For the same compound, the “NV Range” value (1%) was 0-2 and the “inhibition of preretinal NV” value (between 0.3%-1% suspensions, intravitreal) was 100%.
